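Following 48 hours of exposure in 96-well plates, responses at five concentrations were used to interpolate endpoints linearly. Here, GI50 denotes the concentration required for 50% inhibition of growth. TGI: total growth inhibition.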 Where a SMILES comes first, the peptide text is derived from it. The star is where a group is joined. Palmitoyl = CCCCCCCCCCCCCCCC(=O)*

Among the data in PubChem BioAssay (NCI) are GI50 and TGI values, retold here.

Test systems include MOLT-4 leukemia; IGROV1 ovarian; HL-60(TB) leukemia; DU-145 prostate; SF-268 CNS; HOP-62 NSCLC; SK-MEL-28 melanoma; HT29 colon; COLO 205 colon; U251 CNS.
What all share (test): DTP human tumour cell line panel, 48 h

The GI50 is the concentration at which growth is held to half of that of the control. One may read the TGI as the concentration giving total growth inhibition. Low values mean greater sensitivity of the cells, high ones lower sensitivity of the cells. On to `CCCCCCCCCCCCCCCC(=O)N1CCCC1C(=O)NCC(=O)NC(Cc1ccccc1)C(=O)NC(C)C(=O)NC(CO)C(=O)NC(Cc1ccc(O)cc1)C(=O)NC(CCCCN)C(=O)NC(CC(C)C)C(=O)NC(CCCN=C(N)N)C(=O)N1CCCC1C(=O)NCC(N)=O` (stereo unspecified) (Palmitoyl-PGFASYKLRPG-NH2; configuration not given here), for which the GI50 is 17.6 µM with MOLT-4 leukemia; 20.1 µM with IGROV1 ovarian; 17.2 µM in the assay with HL-60(TB) leukemia; 15.7 µM in the assay with DU-145 prostate; 16.3 µM with SF-268 CNS; 21.1 µM with HOP-62 NSCLC. Further, the GI50 in the assay on SK-MEL-28 melanoma is 22.1 µM; with HT29 colon it was 16.8 µM; with COLO 205 colon, 10.9 µM. For the same molecule, the TGI in the assay with MOLT-4 leukemia amounted to 31.4 µM; with IGROV1 ovarian it was 46.1 µM; in the assay on HL-60(TB) leukemia, 31 µM; in the assay on DU-145 prostate it was 43.6 µM; in the assay with SF-268 CNS, 36 µM; in the assay with HOP-62 NSCLC, 46 µM. The TGI was determined as 48.8 µM in the assay on SK-MEL-28 melanoma, 30.5 µM in the assay on HT29 colon and 22.8 µM with COLO 205 colon.
Consider `O[C@@]12Cc3c([nH]c4ccccc34)[C@@H]3Oc4cccc5c4[C@@]31CCN(CC1CC1)[C@@H]2C5`, for which the total growth inhibition concentration (TGI) was determined as 52.7 µM with MOLT-4 leukemia; 45.4 µM in the assay on IGROV1 ovarian; 45.2 µM in the assay with DU-145 prostate; 34 µM in the assay on SF-268 CNS; 54 µM with U251 CNS; 46.6 µM in the assay on HOP-62 NSCLC. Also, the results for the concentration for total growth inhibition (TGI) in the assay on SK-MEL-28 melanoma, in the assay with HT29 colon and in the assay with COLO 205 colon were 38.3 µM, 29.8 µM and 49.8 µM, respectively.
As to `CCOC(=O)c1c(C)n(-c2ccc(Cl)cc2)c2c1cc(O)c1[nH]c3c(c12)CCCC3`, the concentration for total growth inhibition (TGI) in the assay on MOLT-4 leukemia, with IGROV1 ovarian, with HL-60(TB) leukemia, in the assay on DU-145 prostate, in the assay on SF-268 CNS and with U251 CNS was above 100 µM throughout. The TGI with HOP-62 NSCLC, in the assay on SK-MEL-28 melanoma, in the assay on HT29 colon and in the assay with COLO 205 colon was above 100 µM in each case.
Take `CN1C(c2ccccc2)CC(=O)C(N)C1c1ccccc1` (stereo unspecified): the TGI in the assay on MOLT-4 leukemia is above 58.8 µM; in the assay with IGROV1 ovarian, above 100 µM; with HL-60(TB) leukemia it was 56.7 µM; in the assay on SF-268 CNS, above 100 µM; with U251 CNS, 49.2 µM; with HOP-62 NSCLC, above 100 µM. The values for the TGI in the assay with SK-MEL-28 melanoma, with HT29 colon and with COLO 205 colon were above 31.6 µM, 55.8 µM and 32.5 µM, respectively.
On to `Nc1nc(O)c2ncn([C@H]3CC[C@@H](CO)O3)c2n1`, for which the concentration for total growth inhibition (TGI) in the assay on MOLT-4 leukemia, with IGROV1 ovarian, in the assay on DU-145 prostate, in the assay on U251 CNS, in the assay on HOP-62 NSCLC and in the assay with SK-MEL-28 melanoma was above 100 µM throughout. Further, the TGI in the assay with HT29 colon and with COLO 205 colon was above 100 µM throughout.
For the molecule `Cc1ccc(-c2nc(N/N=C/C=C/c3ccccc3)c3ccccc3n2)cc1`, the concentration for total growth inhibition (TGI) was above 100 µM in the assay with MOLT-4 leukemia; above 100 µM with IGROV1 ovarian; above 100 µM with HL-60(TB) leukemia; 96.4 µM in the assay on DU-145 prostate; above 100 µM in the assay on SF-268 CNS; above 100 µM with U251 CNS. In addition, the total growth inhibition concentration (TGI) in the assay with HOP-62 NSCLC, in the assay on SK-MEL-28 melanoma, with HT29 colon and in the assay on COLO 205 colon was above 100 µM throughout.
For `Cc1c(-c2ccccc2)[nH]c2cc(Cl)ccc2c1=O`, the total growth inhibition concentration (TGI) is above 100 µM with MOLT-4 leukemia; above 100 µM in the assay with HL-60(TB) leukemia; above 100 µM in the assay on DU-145 prostate; above 100 µM in the assay with SF-268 CNS; 78.1 µM in the assay with U251 CNS; 60 µM in the assay with HOP-62 NSCLC. Besides, the concentration for total growth inhibition (TGI) in the assay with SK-MEL-28 melanoma and in the assay with HT29 colon was above 100 µM each time.
Take `CCN1CCC(O)(/C=C/c2ccccc2C)C(C(=O)/C=C/c2ccccc2C)C1` (stereo unspecified): the TGI with MOLT-4 leukemia is 6.12 µM; in the assay on IGROV1 ovarian it was 14.5 µM; in the assay with HL-60(TB) leukemia, 4.85 µM; in the assay on DU-145 prostate, 4.05 µM; with SF-268 CNS it was 14 µM; with U251 CNS, 7.25 µM. In addition, the TGI in the assay with HOP-62 NSCLC came to 3.74 µM; in the assay with SK-MEL-28 melanoma it was 6.71 µM; in the assay on HT29 colon, 6.7 µM; in the assay on COLO 205 colon, 3.13 µM.
Take `c1cnc2c(c1)ccc1cccnc12`: the total growth inhibition concentration (TGI) with MOLT-4 leukemia is 8.37 µM; with IGROV1 ovarian it was above 100 µM; in the assay on HL-60(TB) leukemia, 3.04 µM; with DU-145 prostate, above 100 µM; in the assay with SF-268 CNS, above 100 µM; in the assay on U251 CNS, above 100 µM. The TGI with HOP-62 NSCLC was above 100 µM; in the assay on SK-MEL-28 melanoma, above 100 µM; in the assay on HT29 colon, above 100 µM; with COLO 205 colon it was above 83.3 µM.
With `CC1=C(O)C2=C(C(=O)C1=O)[C@@H](C)CC[C@@H]2[C@@H](C)C/C=C/C(C)(C)O`, the total growth inhibition concentration (TGI) was 93.2 µM in the assay with MOLT-4 leukemia; above 100 µM with IGROV1 ovarian; 71.3 µM in the assay with HL-60(TB) leukemia; above 100 µM in the assay on DU-145 prostate; above 100 µM in the assay with SF-268 CNS; above 100 µM with U251 CNS. Further, the TGI with HOP-62 NSCLC, with HT29 colon and in the assay with COLO 205 colon was above 100 µM in each case.
Regarding `Nc1[nH]c(=O)nc2c1cnn2C1CCCCO1` (stereo unspecified), the TGI with MOLT-4 leukemia, in the assay with IGROV1 ovarian, with HL-60(TB) leukemia, in the assay with SF-268 CNS, with U251 CNS and with SK-MEL-28 melanoma was above 100 µM in each case. For the same molecule, the TGI in the assay on HT29 colon and in the assay with COLO 205 colon was above 100 µM in each case.
For the molecule `C=C(C)C1Cc2c(c3ccccc3n(C)c2=O)O1` (stereo unspecified), the concentration for total growth inhibition (TGI) in the assay with MOLT-4 leukemia, in the assay with IGROV1 ovarian, in the assay on HL-60(TB) leukemia, in the assay on SF-268 CNS, with U251 CNS and in the assay with SK-MEL-28 melanoma was above 100 µM in each case. In addition, the TGI in the assay with HT29 colon and in the assay with COLO 205 colon was above 100 µM in each case.
With `c1ccc(-c2nc(N3CCNCC3)c3oc(-c4ccccc4)nc3n2)cc1`, the GI50 in the assay with IGROV1 ovarian was 1.69 µM; in the assay on HL-60(TB) leukemia, 2.03 µM; with DU-145 prostate it was 1.88 µM; in the assay with SF-268 CNS, 1.73 µM; in the assay with HOP-62 NSCLC, 2.26 µM; in the assay on SK-MEL-28 melanoma, 1.73 µM. In addition, the GI50 in the assay on COLO 205 colon is 2.14 µM. Moreover, the TGI in the assay on IGROV1 ovarian worked out at 3.22 µM; in the assay on HL-60(TB) leukemia, 4.26 µM; with DU-145 prostate it was 3.33 µM; in the assay with SF-268 CNS, 3.46 µM; with HOP-62 NSCLC, 4.81 µM; in the assay on SK-MEL-28 melanoma it was 3.16 µM. Besides, in the assay on COLO 205 colon, the total growth inhibition concentration (TGI) was found to be 4.88 µM.
